In patent US20050232864A1, “Method for phenotyping using nmr spectroscopy” (priority 2002, published 2005):

Assay: Pharmacokinetic parameters of CBZ in rabbit plasma by DNP-NMR compared with LC-MS (Example 3)
Format: in vivo
Conditions: single oral dose 40 mg/kg CBZ
Protocol: Samples were collected at 8 time points over a period of 24 hours, at the following times: 0 min., 15 min., 30 min., 1 hour, 2 hours, 4 hours, 8 hours and 24 hours. 2 ml blood was withdrawn from the marginal ear vein of the rabbit. Plasma was extracted from the blood and divided into two samples, one for LC-MS analysis and one for DNP and NMR analysis (˜0.5 ml for each).
Rabbit plasma (400 μl) in a 2 ml vial was treated with acetonitrile (750 μl) and sonicated with a sonication probe for 15 sec. Another portion of acetonitrile (750 μl) was added to the vial so as to rinse the probe, the vial was closed, agitated briefly on a whirly mixer and centrifuged at 14 000 rev/min for about 1 min. The supernatant was transferred into a fresh vial in portions and evaporated in a ThermoSavant SPD 111V speedvac. Towards the end of the evaporation, 20 μl of an aqueous stock solution of EDTA (1 μg/μl) was added and the mixture was evaporated to dryness. 50 μl of the stock solvent as described below was added to the solid residue, and the added weight was noted. The sample was sonicated for 15 min to dissolve the residue and centrifuged to force the whole sample to the bottom of the vial. The vial was weighed together with a pipette tip and the sample was collected into the pipette tip and dispensed drop wise into liquid nitrogen. The used vial and pipette tip was weighed again to assess the actual weight of the sample. The cooled sample pellets were placed in a sample cup and administered into a DNP-polariser.
The volume of the radical is not accounted for in the calculation.
The sample was dissolved in heated (60° C.) methanol-D4 containing 75 μg EDTA per 7.0 ml of methanol. The dissolved sample was collected in a 10 mm NMR-tube fitted with a NMR-spinner and kept in a portable magnetic field (12 mT). The sample was moved from the polariser into the NMR magnet as expediently as possible making sure that the tube is protected in the portable magnetic field during the transport.
A 1D ^13C NMR-spectrum was acquired with a 10 mm Varian direct detection probe at 100.393 MHz (400 MHz ^1H). […] The NMR acquisition parameters were a spectral width of 40 kHz (400 ppm), an acquisition time of 2.5 s, and a pulse angle of 90. […] The spectrum was acquired 5 s after dissolution was initiated.
First, the reference ^13C-NMR signal from HP001 was analysed by selecting one Lorentzian line shape model function to describe the signal. The algorithm calculates phase, amplitude, damping (or line width in frequency domain) and frequency. The first order phase was set fixed at zero. […] All phases of the peaks were zero with respect to the main phase and a Lorentzian line shape model function was assumed. […] The first order phase was fixed at zero, the zero order phase was determined by the algorithm.
0.11 μg, 0.33 μg, 0.5 μg, 1.0 μg, 1.5 μg, and 2.0 μg were spiked into […] rabbit plasma, incubated at 37° C. and prepared as described in the section on sample preparation.

[1] = Table 2, footnote: E-CBZ levels calculated, DNP-NMR
[2] = Table 2, footnote: E-CBZ levels calculated, LC-MS

AUC0.5-8h (Table 1, CBZ levels, DNP-NMR): 52 µM·h
Cmax (Table 1, CBZ levels, DNP-NMR): 12 µM
AUC0.5-8h (Table 1, CBZ levels, LC-MS): 60 µM·h
Cmax (Table 1, CBZ levels, LC-MS): 13.3 µM
AUC0.5-8h [1]: 52 µM·h
Cmax [1]: 12 µM
AUC0.5-8h [2]: 60 µM·h
Cmax [2]: 13.3 µM
Substance: carbamazepine [CBZ]
